Data on 31 compounds can be found in PubChem BioAssay AID623973 (The Scripps Research Institute Molecular Screening Center, 2012).

Calls of active or inactive are those of the source. No rule for the calls is given here. Where only a bound is given, the exact number is not on record here.

For this experiment, the target named is Hepatitis C virus NS3 helicase (ATPase activity). The experiment can be described thus: inhibitors of HCV NS3 ATPase activity, late-stage follow-up, mechanism study for HCV NS3 helicase inhibitor project, biochemical, absorbance (AID 623973). Particulars: absorbance phosphate detection.
On to `Cc1cc2sc(-c3ccc(N)cc3)nc2cc1S(=O)(=O)O`, for which the IC50 is > 200 µM (inactive).

On to `Cc1ccc2nc(-c3ccc(N)cc3)sc2c1S(=O)(=O)O`, for which the IC50 was > 200 µM (inactive).

Consider `Cc1ccc2nc(-c3ccc4nc(-c5ccc(NC(=O)c6cc(C(F)(F)F)ccc6F)cc5)sc4c3)sc2c1S(=O)(=O)O`, for which the IC50 is 61 µM.

On to `Cc1ccc2nc(-c3ccc4nc(-c5ccc(NC(=O)c6ccc(Cl)c(Cl)c6)cc5)sc4c3)sc2c1S(=O)(=O)O`, for which the IC50 was 44 µM.

For `CCN(CC)c1ccc(-c2nc3ccc(-c4nc5ccc(C)c(S(=O)(=O)O)c5s4)cc3s2)cc1`, the IC50 was > 200 µM (inactive).

For `Cc1ccc(C(=O)Nc2ccc(-c3nc4ccc(-c5nc6ccc(C)c(S(=O)(=O)O)c6s5)cc4s3)cc2)cc1`, the IC50 is 33 µM.

Take `Cc1ccc2nc(-c3ccc4nc(-c5ccc(NC(=O)c6cc(C(F)(F)F)cc(C(F)(F)F)c6)cc5)sc4c3)sc2c1S(=O)(=O)O`: the IC50 entry was “inactive”.

As to `Cc1ccc2nc(-c3ccc4nc(-c5ccc(NC(=O)c6ccc7nc(-c8ccc(N)cc8)sc7c6)cc5)sc4c3)sc2c1S(=O)(=O)O`, the IC50 was > 200 µM (inactive).

`Cc1ccc2nc(-c3ccc4nc(-c5ccc(NC(=O)Nc6ccccc6)cc5)sc4c3)sc2c1S(=O)(=O)O`: the IC50 is 70 µM.

For `CCN(CC)c1ccc(-c2nc3ccc(C)c(S(=O)(=O)O)c3s2)cc1`, the IC50 is > 200 µM (inactive).

For the compound `COc1cccc2c(=O)c3cc(Cl)cc(C(=O)Nc4cc(Cl)ccn4)c3[nH]c12`, the IC50 was > 200 µM (inactive).

For `Cc1ccc2nc(-c3ccc4nc(-c5ccc(NC(=O)Nc6ccc(Cl)cc6)cc5)sc4c3)sc2c1S(=O)(=O)O`, the IC50 is 86 µM.

In the case of `Cc1cc(C(O)(c2ccc(Nc3ccccc3)cc2)c2ccc(Nc3ccc(S(=O)(=O)O)cc3)cc2)ccc1N` (stereo unspecified), the IC50 was > 200 µM (inactive).

On to `Cc1ccc2nc(-c3ccc4nc(-c5ccc(NC(=O)c6ccc7ccccc7c6)cc5)sc4c3)sc2c1S(=O)(=O)O`, for which the IC50 was 30 µM.

With `Cc1cc2sc(-c3ccc4nc(-c5ccc(N)cc5)sc4c3)nc2cc1S(=O)(=O)O`, the IC50 was > 200 µM (inactive).

As for `Cc1ccc2nc(-c3ccc4nc(-c5ccc(NC(=O)c6ccc(C(C)(C)C)cc6)cc5)sc4c3)sc2c1S(=O)(=O)O`, the IC50 entry was “inactive”.

Consider `Cc1ccc2nc(-c3ccc(NC(=O)c4ccc(NC(=O)Nc5ccccc5)cc4)cc3)sc2c1S(=O)(=O)O`, for which the IC50 was > 200 µM (inactive).

For `Cc1ccc2nc(-c3ccc4nc(-c5ccc(NC(=O)c6ccc(Br)cc6)cc5)sc4c3)sc2c1S(=O)(=O)O`, the IC50 was 50 µM.

For `CCOc1ccc2c(NNC(=O)c3cnccn3)c3c(nc2c1)CCCC3`, the IC50 was > 200 µM (inactive).

Regarding `COc1ccc(C(=O)Nc2ccc(-c3nc4ccc(-c5nc6ccc(C)c(S(=O)(=O)O)c6s5)cc4s3)cc2)cc1`, the IC50 was 50 µM.

As to `Cc1ccc2nc(-c3ccc4nc(-c5ccc(NC(=O)c6ccc(C(F)(F)F)cc6)cc5)sc4c3)sc2c1S(=O)(=O)O`, the IC50 is 24 µM.

As to `Cc1ccc2c(sc(-c3ccc4c(c3)sc(-c3ccc5c(c3)sc(-c3ccc(N(C)C)cc3)[n+]5C)[n+]4C)[n+]2C)c1S(=O)(=O)O` (tested in a mixture with another compound), the IC50 was > 200 µM (inactive).

`Cc1ccc2nc(-c3ccc4nc(-c5ccc(N)cc5)sc4c3)sc2c1S(=O)(=O)O`: the IC50 was > 200 µM (inactive).

`Cc1ccc2nc(-c3ccc4nc(-c5ccc6nc(-c7ccc8nc(-c9ccc(N)cc9)sc8c7)sc6c5)sc4c3)sc2c1S(=O)(=O)O`: the IC50 was 43 µM.

As to `Cc1ccc2nc(-c3ccc4nc(-c5ccc(NC(=O)c6ccc(N)cc6)cc5)sc4c3)sc2c1S(=O)(=O)O`, the IC50 result is “inactive”.

For the compound `Cc1ccc2nc(-c3ccc4nc(-c5ccc(NC(=O)c6cccc(Cl)c6)cc5)sc4c3)sc2c1S(=O)(=O)O`, the IC50 was 74 µM.

As for `Cc1ccc2nc(-c3ccc4nc(-c5ccc(NC(=O)c6cccnc6)cc5)sc4c3)sc2c1S(=O)(=O)O`, the IC50 was > 200 µM (inactive).

As to `COc1ccc(NC(=O)Nc2ccc(-c3nc4ccc(-c5nc6ccc(C)c(S(=O)(=O)O)c6s5)cc4s3)cc2)cc1`, the IC50 was 73 µM.

In the case of `CN1CCN(Cc2cc(CN3CCN(C)CC3)c(O)c(=O)c(CN3CCN(C)CC3)c2)CC1`, the IC50 is > 200 µM (inactive).

As for `O=C(CCCCCCC(=O)Nc1ccc(-c2nc3ccccc3[nH]2)cc1)Nc1ccc(-c2nc3ccccc3[nH]2)cc1`, the IC50 was > 200 µM (inactive).

In the case of `Cc1ccc2nc(-c3ccc4nc(-c5ccc(NC(=O)c6ccc(F)cc6)cc5)sc4c3)sc2c1S(=O)(=O)O`, the IC50 is 67 µM.
